Literature values as cited in patent US20220347157A1, “SUSTAINED RELEASE PHARMACEUTICAL COMPOSITIONS COMPRISING (1R, 5S)-1-(NAPHTHALEN-2-YL)-3-AZABICYCLO[3.1.0]HEXANE” (OTSUKA AMERICA PHARMACEUTICAL, INC., priority 2013, published 2022).

Experiments:
[1] = target: dopamine reuptake (DA) (Homo sapiens, UniProt Q01959); conditions: fraction of the potency towards norepinephrine reuptake
[2] = target: serotonin reuptake (5-HT) (Homo sapiens, UniProt P31645); conditions: fraction of the potency towards norepinephrine reuptake
Chain of serotonin reuptake (5-HT) (P31645 whole entry): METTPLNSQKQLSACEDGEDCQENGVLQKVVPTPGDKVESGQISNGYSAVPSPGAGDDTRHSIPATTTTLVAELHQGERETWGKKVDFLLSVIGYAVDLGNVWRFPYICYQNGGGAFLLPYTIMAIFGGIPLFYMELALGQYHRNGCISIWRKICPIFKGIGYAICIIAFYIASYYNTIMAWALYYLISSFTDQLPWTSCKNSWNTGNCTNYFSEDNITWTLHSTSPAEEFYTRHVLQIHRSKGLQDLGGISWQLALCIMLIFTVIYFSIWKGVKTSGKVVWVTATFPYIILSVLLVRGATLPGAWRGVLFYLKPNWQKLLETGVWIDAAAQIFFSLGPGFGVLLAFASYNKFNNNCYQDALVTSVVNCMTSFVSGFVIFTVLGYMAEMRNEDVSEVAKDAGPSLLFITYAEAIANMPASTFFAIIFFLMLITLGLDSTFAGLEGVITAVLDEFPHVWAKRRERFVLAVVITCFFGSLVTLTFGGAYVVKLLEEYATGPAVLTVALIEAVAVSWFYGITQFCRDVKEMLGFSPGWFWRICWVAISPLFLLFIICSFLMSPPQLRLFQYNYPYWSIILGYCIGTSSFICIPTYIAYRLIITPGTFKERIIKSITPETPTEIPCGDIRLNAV

Chain of dopamine reuptake (DA) (Q01959 whole entry): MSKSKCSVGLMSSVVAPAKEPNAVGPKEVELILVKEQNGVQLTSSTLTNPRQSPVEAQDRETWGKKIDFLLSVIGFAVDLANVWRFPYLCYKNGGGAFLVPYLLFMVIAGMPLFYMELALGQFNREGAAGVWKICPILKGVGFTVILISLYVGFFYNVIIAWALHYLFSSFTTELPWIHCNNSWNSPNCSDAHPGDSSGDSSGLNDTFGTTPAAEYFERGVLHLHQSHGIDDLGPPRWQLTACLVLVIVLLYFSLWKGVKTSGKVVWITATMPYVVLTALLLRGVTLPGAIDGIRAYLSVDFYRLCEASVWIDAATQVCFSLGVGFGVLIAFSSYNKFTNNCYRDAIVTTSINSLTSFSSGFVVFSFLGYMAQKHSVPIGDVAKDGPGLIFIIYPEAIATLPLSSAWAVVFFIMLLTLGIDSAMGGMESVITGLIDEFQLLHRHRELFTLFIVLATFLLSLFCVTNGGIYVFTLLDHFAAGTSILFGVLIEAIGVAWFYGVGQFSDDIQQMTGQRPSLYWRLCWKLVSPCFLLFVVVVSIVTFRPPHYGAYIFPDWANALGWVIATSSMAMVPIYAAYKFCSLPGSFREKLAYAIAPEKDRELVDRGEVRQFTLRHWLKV

c1ccc2cc([C@]34CNC[C@H]3C4)ccc2c1 [(1R,5S)-1-(naphthalen-2-yl)-3-azabicyclo[3.1.0]hexane]
potency towards dopamine reuptake (DA) relative to norepinephrine reuptake (NE) [1]: one-sixth as much | potency towards serotonin reuptake (5-HT) relative to norepinephrine reuptake (NE) [2]: one-fourteenth as much
